Results from patent publication US12139520B2 (priority 2020, dated 2024).
Bridge positions count the residues as written; N and C are the ends. Square brackets hold non-standard residues; d marks the D form. Peptide text beside a SMILES is read from it. Hyp = O=C(O)[C@@H]1C[C@@H](O)CN1; Cit = NC(=O)NCCC[C@H](N)C(=O)O

What was measured:
[1] = target: T1, hAMY3 receptor (Homo sapiens, UniProt O60896+P30988); experiment: cAMP assay for in vitro receptor activation, hAMY3-R; format: cell-based; settings: cAMP assay, hAMY3 receptor; read-out: hAMY3R EC50
T1 sequence (P30988 25-474): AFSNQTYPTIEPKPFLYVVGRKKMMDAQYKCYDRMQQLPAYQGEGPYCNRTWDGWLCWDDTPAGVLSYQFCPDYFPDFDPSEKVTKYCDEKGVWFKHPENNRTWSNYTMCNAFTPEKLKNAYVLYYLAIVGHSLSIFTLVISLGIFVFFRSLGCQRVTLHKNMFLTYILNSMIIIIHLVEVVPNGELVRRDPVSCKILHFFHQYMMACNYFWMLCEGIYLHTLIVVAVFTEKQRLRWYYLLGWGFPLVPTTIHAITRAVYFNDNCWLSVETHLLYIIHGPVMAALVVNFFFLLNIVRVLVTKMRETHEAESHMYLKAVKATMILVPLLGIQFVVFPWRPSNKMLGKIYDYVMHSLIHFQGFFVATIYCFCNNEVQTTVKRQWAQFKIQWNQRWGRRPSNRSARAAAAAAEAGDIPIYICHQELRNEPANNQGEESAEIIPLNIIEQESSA
T1 sequence (O60896 24-148 partner): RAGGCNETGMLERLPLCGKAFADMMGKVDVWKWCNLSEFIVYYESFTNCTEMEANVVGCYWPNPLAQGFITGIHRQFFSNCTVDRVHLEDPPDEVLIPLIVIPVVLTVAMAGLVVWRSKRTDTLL
Summary of the method: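 Monoclonal cell line stably overexpressing hAMY3 receptor, plated in DPBS with 0.05% casein and 0.5 mM IBMX, was stimulated with graded compound doses for 30 min at room temperature. cAMP accumulation was read by time-resolved FRET one hour after adding detection reagents.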

[2] = Physical stability of peptide analogues (Thioflavin T fibrillation); format: physicochemical; settings: maximum ThT signal normalized between hAMY maximum and buffer background; 40° C., shaking, four days; pH 7 per table title
Summary of the method: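 Samples are stressed at 40 °C for four days, being shaken at 700 rpm before each 10-min fluorescence reading of 4 μM Thioflavin T. Buffers were pH 4 acetate or pH 7 phosphate. Reported values are smoothed maximum ThT signals as a percentage of the hAMY-to-background range.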

EC50 [1]	Max ThT signal (%) [2]	Compound
0.036 nM	3.200%	CC[C@H](C)[C@H](NC(=O)[C@H](CCC(N)=O)NC(=O)[C@H](Cc1c[nH]cn1)NC(=O)[C@H](C)NC(=O)[C@H](CC(C)C)NC(=O)[C@H](CCCNC(=N)N)NC(=O)[C@H](CCC(N)=O)NC(=O)[C@@H](NC(=O)[C@@H](NC(=O)[C@@H]1CSSC[C@H](NC(=O)CN)C(=O)N[C@@H](CCCNC(=N)N)C(=O)N[C@@H](Cc2ccccc2)C(=O)NCC(=O)N[C@@H]([C@@H](C)O)C(=O)N1)[C@@H](C)O)C(C)C)C(=O)N[C@@H](Cc1ccc(O)cc1)C(=O)N[C@@H](CCC(N)=O)C(=O)N[C@@H](Cc1ccccc1)C(=O)N[C@H](C(=O)N[C@@H](CC(=O)O)C(=O)N[C@@H](CCCCN)C(=O)N[C@@H](CC(=O)O)C(=O)N[C@@H](CCCCN)C(=O)N[C@@H](CC(=O)O)C(=O)N[C@@H](CC(N)=O)C(=O)N[C@H](C(=O)N[C@@H](C)C(=O)N1CCC[C@H]1C(=O)N[C@@H](CCCNC(=N)N)C(=O)N[C@H](C(=O)N[C@@H](CC(N)=O)C(=O)N[C@H](C(=O)N[C@@H](CO)C(=O)N1CCC[C@H]1C(=O)N[C@@H](CCC(N)=O)C(=O)NCC(=O)N1C[C@H](O)C[C@H]1C(N)=O)[C@@H](C)CC)[C@@H](C)O)C(C)C)[C@@H](C)O [compound 141] (H-GCRFGTCTVQRLAHQIYQFTDKDKDNVAPRTNISPQG[Hyp]-NH2; disulfide 2-7; N-terminus assumed)
0.026 nM	1.800%	CC[C@H](C)[C@H](NC(=O)[C@H](CCC(N)=O)NC(=O)[C@H](Cc1c[nH]cn1)NC(=O)[C@H](C)NC(=O)[C@H](CC(C)C)NC(=O)[C@H](CCCNC(=N)N)NC(=O)[C@H](CCC(N)=O)NC(=O)[C@@H](NC(=O)[C@@H](NC(=O)[C@@H]1CSSC[C@H](NC(=O)CN)C(=O)N[C@@H](CCCNC(=N)N)C(=O)N[C@@H]([C@@H](C)O)C(=O)NCC(=O)N[C@@H]([C@@H](C)O)C(=O)N1)[C@@H](C)O)C(C)C)C(=O)N[C@@H](Cc1ccc(O)cc1)C(=O)N[C@@H](CCC(N)=O)C(=O)N[C@@H](Cc1ccccc1)C(=O)N[C@H](C(=O)N[C@@H](CC(=O)O)C(=O)N[C@@H](CCCCN)C(=O)N[C@@H](CC(=O)O)C(=O)N[C@@H](CCCCN)C(=O)N[C@@H](CC(=O)O)C(=O)N[C@@H](CC(N)=O)C(=O)N[C@H](C(=O)N[C@@H](C)C(=O)N1CCC[C@H]1C(=O)N[C@@H](CCCNC(=N)N)C(=O)N[C@@H](CO)C(=O)N[C@@H](CC(N)=O)C(=O)N[C@H](C(=O)NCC(=O)N1CCC[C@H]1C(=O)N[C@@H](CCC(N)=O)C(=O)NCC(=O)N1C[C@H](O)C[C@H]1C(N)=O)C(C)C)C(C)C)[C@@H](C)O [compound 121] (H-GCRTGTCTVQRLAHQIYQFTDKDKDNVAPRSNVGPQG[Hyp]-NH2; disulfide 2-7; N-terminus assumed)
0.051 nM	3.250%	CC[C@H](C)[C@H](NC(=O)[C@H](CCC(N)=O)NC(=O)[C@H](Cc1c[nH]cn1)NC(=O)[C@H](C)NC(=O)[C@H](CC(C)C)NC(=O)[C@H](Cc1c[nH]c2ccccc12)NC(=O)[C@H](CCC(N)=O)NC(=O)[C@@H](NC(=O)[C@@H](NC(=O)[C@@H]1CSSC[C@H](NC(=O)CN)C(=O)N[C@@H](CCCNC(=N)N)C(=O)N[C@@H](Cc2ccccc2)C(=O)NCC(=O)N[C@@H]([C@@H](C)O)C(=O)N1)[C@@H](C)O)C(C)C)C(=O)N[C@@H](Cc1ccc(O)cc1)C(=O)N[C@@H](CCC(N)=O)C(=O)N[C@@H](Cc1ccccc1)C(=O)N[C@H](C(=O)N[C@@H](CC(=O)O)C(=O)N[C@@H](CCCCN)C(=O)N[C@@H](CC(=O)O)C(=O)N[C@@H](CCCCN)C(=O)N[C@@H](CC(=O)O)C(=O)N[C@@H](CC(N)=O)C(=O)N[C@H](C(=O)N[C@@H](C)C(=O)N1CCC[C@H]1C(=O)N[C@@H](CCCNC(=N)N)C(=O)N[C@@H](CO)C(=O)N[C@@H](CC(N)=O)C(=O)N[C@H](C(=O)N[C@@H](CO)C(=O)N1CCC[C@H]1C(=O)N[C@@H](CCC(N)=O)C(=O)NCC(=O)N[C@@H](Cc1ccc(O)cc1)C(N)=O)C(C)C)C(C)C)[C@@H](C)O [compound 345] (H-GCRFGTCTVQWLAHQIYQFTDKDKDNVAPRSNVSPQGY-NH2; disulfide 2-7; N-terminus assumed)
0.025 nM	2.900%	CC[C@H](C)[C@H](NC(=O)[C@H](CCC(N)=O)NC(=O)[C@H](Cc1c[nH]cn1)NC(=O)[C@H](C)NC(=O)[C@H](CC(C)C)NC(=O)[C@H](CCCNC(N)=O)NC(=O)[C@H](CCC(N)=O)NC(=O)[C@@H](NC(=O)[C@@H](NC(=O)[C@@H]1CSSC[C@H](NC(=O)CN)C(=O)N[C@@H](CCCNC(=N)N)C(=O)N[C@@H](Cc2ccccc2)C(=O)NCC(=O)N[C@@H]([C@@H](C)O)C(=O)N1)[C@@H](C)O)C(C)C)C(=O)N[C@@H](Cc1ccc(O)cc1)C(=O)N[C@@H](CCC(N)=O)C(=O)N[C@@H](Cc1ccccc1)C(=O)N[C@H](C(=O)N[C@@H](CC(=O)O)C(=O)N[C@@H](CCCCN)C(=O)N[C@@H](CC(=O)O)C(=O)N[C@@H](CCCCN)C(=O)N[C@@H](CC(=O)O)C(=O)N[C@@H](CC(N)=O)C(=O)N[C@H](C(=O)N[C@@H](C)C(=O)N1CCC[C@H]1C(=O)N[C@@H](CCCNC(=N)N)C(=O)N[C@@H](CO)C(=O)N[C@@H](CC(N)=O)C(=O)N[C@H](C(=O)N[C@@H](CO)C(=O)N1CCC[C@H]1C(=O)N[C@@H](CCC(N)=O)C(=O)NCC(=O)N[C@@H](Cc1ccc(O)cc1)C(N)=O)C(C)C)C(C)C)[C@@H](C)O [compound 286] (H-GCRFGTCTVQ[Cit]LAHQIYQFTDKDKDNVAPRSNVSPQGY-NH2; disulfide 2-7; N-terminus assumed)
0.054 nM	24.300%	CC[C@H](C)[C@H](NC(=O)[C@H](CCC(N)=O)NC(=O)[C@H](Cc1c[nH]cn1)NC(=O)[C@H](C)NC(=O)[C@H](CC(C)C)NC(=O)[C@H](CCCNC(=N)N)NC(=O)[C@H](CCC(N)=O)NC(=O)[C@@H](NC(=O)[C@@H](NC(=O)[C@@H]1CSSC[C@H](NC(=O)CN)C(=O)N[C@@H](CCCNC(=N)N)C(=O)N[C@@H](Cc2ccccc2)C(=O)NCC(=O)N[C@@H]([C@@H](C)O)C(=O)N1)[C@@H](C)O)C(C)C)C(=O)N[C@@H](Cc1ccc(O)cc1)C(=O)N[C@@H](CCC(N)=O)C(=O)N[C@@H](Cc1ccccc1)C(=O)N[C@H](C(=O)N[C@@H](CC(=O)O)C(=O)N[C@@H](CCCCN)C(=O)N[C@@H](CC(=O)O)C(=O)N[C@@H](CCCCN)C(=O)N[C@@H](CC(=O)O)C(=O)N[C@@H](CC(N)=O)C(=O)N[C@H](C(=O)N[C@@H](C)C(=O)N1CCC[C@H]1C(=O)N[C@@H](CCCNC(=N)N)C(=O)N[C@H](C(=O)N[C@@H](CCCCN)C(=O)N[C@H](C(=O)N[C@@H](CO)C(=O)N1CCC[C@H]1C(=O)N[C@@H](CCC(N)=O)C(=O)NCC(=O)N[C@@H](Cc1ccc(O)cc1)C(N)=O)[C@@H](C)CC)[C@@H](C)O)C(C)C)[C@@H](C)O [compound 164] (H-GCRFGTCTVQRLAHQIYQFTDKDKDNVAPRTKISPQGY-NH2; disulfide 2-7)
0.033 nM	3.300%	CC[C@H](C)[C@H](NC(=O)[C@H](CCC(N)=O)NC(=O)[C@H](Cc1c[nH]cn1)NC(=O)[C@H](C)NC(=O)[C@H](CC(C)C)NC(=O)[C@H](CCCNC(=N)N)NC(=O)[C@H](CCC(N)=O)NC(=O)[C@@H](NC(=O)[C@@H](NC(=O)[C@@H]1CSSC[C@H](NC(=O)CN)C(=O)N[C@@H](CCCNC(=N)N)C(=O)N[C@@H](Cc2ccccc2)C(=O)NCC(=O)N[C@@H]([C@@H](C)O)C(=O)N1)[C@@H](C)O)C(C)C)C(=O)N[C@@H](Cc1ccc(O)cc1)C(=O)N[C@@H](CCC(N)=O)C(=O)N[C@@H](Cc1ccccc1)C(=O)N[C@H](C(=O)N[C@@H](CC(=O)O)C(=O)N[C@@H](CCCCN)C(=O)N[C@@H](CC(=O)O)C(=O)N[C@@H](CCCCN)C(=O)N[C@@H](CC(=O)O)C(=O)N[C@@H](CC(N)=O)C(=O)N[C@H](C(=O)N[C@@H](C)C(=O)N1CCC[C@H]1C(=O)N[C@@H](CCCNC(=N)N)C(=O)N[C@@H](CO)C(=O)N[C@@H](CC(N)=O)C(=O)N[C@H](C(=O)NCC(=O)N1CCC[C@H]1C(=O)N[C@@H](CCC(N)=O)C(=O)NCC(=O)N1C[C@H](O)C[C@H]1C(N)=O)C(C)C)C(C)C)[C@@H](C)O [compound 135] (H-GCRFGTCTVQRLAHQIYQFTDKDKDNVAPRSNVGPQG[Hyp]-NH2; disulfide 2-7; N-terminus assumed)
